Measured values taken from paper PMC12494099, “Discovery and Characterization of Novel IKZF1/3 Glue Degraders against Multiple Hematological Cancer Cell Lines” (Oncology Research, 2025).

Tests used:
Experiment in all cases: MS-based quantitative proteomics in NCI-H929 cells
Assay type in all cases: cell-based
IKZF4 = biological target: T1, IKZF4 (Homo sapiens, UniProt Q9H2S9); conditions: NCI-H929, 10 μM, 4 h; not notably downregulated
T1 construct: endogenous in cells; host or cells: NCI-H929
Procedure: (§1) NCI-H929 cells were treated with either 10 μM DMSO or 10 μM MGD-C9 for 4 h. Post-treatment, the cells were washed with PBS (pH = 7.2–7.4, 1×) and then lysed in 8M Urea (UA) (comprising 8M urea, 100 mM Tris-HCl, pH = 8.0). Subsequently, the cell lysate was subjected to centrifugation on a high-speed freezing microcentrifuge (#CF1524R; SCILOGEX, Meriden, CT, USA) at […], and the supernatant was collected. Subsequently, the collected supernatant was treated with 10 mM tris (2-carboxyethyl) phosphine hydrochloride (TCEP) to reduce it for 30 min. Following this, cysteine alkylation was performed using 50 mM 2-chloroacetamide (CAA) for an additional 30 min. The denatured proteins were then digested with trypsin (1 μg/μL) at an enzyme-to-protein ratio of 1:50 and incubated at 37°C overnight. The reaction was stopped by adding 0.1% formic acid (FA). The samples were desalted using 100 μL pipette tips packed with C18 discs (3M, Saint Paul, MN, USA). Prior to sample loading, the tips were conditioned sequentially with 80 μL of acetonitrile (ACN), followed by 80 μL of a 1:1 (v/v) mixture of H2O and ACN, and finally with 80 μL of H2O. The conditioned tips were loaded with peptides. Then, they were washed twice with 80 μL of H2O. After that, the peptides were eluted twice using 80 μL of a solution composed of 50% water and 50% acetonitrile (ACN). The resulting eluates were vacuum-dried and then reconstituted in 0.1% formic acid for the subsequent LC-MS/MS analysis.
(§2) The peptide mixtures were analyzed using an EASY-nLC 1200 liquid chromatography system (Thermo Fisher Scientific, WLM, MA, USA) equipped with a custom-made 15 cm C18 column (150 μm ID, 1.9 μm particle size, 100 Å pore size). Peptide separation was performed over a 75-min gradient at a constant flow rate of 600 nL/min. The gradient profile was as follows: 4%–7% buffer B (1 min), 7%–13% buffer B (6 min), 13%–25% buffer B (38 min), 25%–45% buffer B (22 min), 45%–95% buffer B (1 min), followed 95% buffer B (7-min). The buffers used were Buffer A (0.1% formic acid) and Buffer B (0.1% formic acid in 80% acetonitrile). The peptide mixtures were then analyzed using a Q Exactive HF mass spectrometer (Thermo Fisher Scientific). MS data were acquired in data-dependent acquisition (DDA) mode with a dynamic exclusion duration of 15 s. MS1 scans were acquired in positive-ion mode across a mass-to-charge (m/z) range of 300–1400, with a resolution of 120,000 (at m/z 200) and a maximum injection time of 50 ms. Precursor ions were fragmented using higher-energy collision dissociation (HCD) at 27% normalized collision energy. MS2 spectra were collected with an AGC target of 5.0 × 10^4 and a maximum injection time of 20 ms.
(§3) Label-free MS raw data were processed using MaxQuant (v2.4) against the UniProt Human database (https://www.uniprot.org/, downloaded May 2024; 20,434 entries). A strict false discovery rate (FDR) threshold of ≤0.01 was applied at the spectra, protein, and modification levels. Contaminants and reverse database hits were excluded. Default settings were used for all other parameters. Protein groups output by MaxQuant were further analyzed in R (v4.2.1). Student’s t-test, and p-values < 0.01 were considered statistically significant for statistical analyses and a volcano plot was generated with GraphPad Prism 8.0.

SALL4 = biological target: T2, SALL4 (Homo sapiens, UniProt Q9UJQ4); conditions: NCI-H929, 10 µM
T2 construct: endogenous in cells; host or cells: NCI-H929
Procedure: as §1, §2, §3

PLZF = biological target: T3, PLZF (Homo sapiens, UniProt Q05516); conditions: NCI-H929, 10 µM
T3 construct: endogenous in cells; host or cells: NCI-H929
Procedure: as §1, §2, §3

T1 sequence (Q96SW2 whole entry partner): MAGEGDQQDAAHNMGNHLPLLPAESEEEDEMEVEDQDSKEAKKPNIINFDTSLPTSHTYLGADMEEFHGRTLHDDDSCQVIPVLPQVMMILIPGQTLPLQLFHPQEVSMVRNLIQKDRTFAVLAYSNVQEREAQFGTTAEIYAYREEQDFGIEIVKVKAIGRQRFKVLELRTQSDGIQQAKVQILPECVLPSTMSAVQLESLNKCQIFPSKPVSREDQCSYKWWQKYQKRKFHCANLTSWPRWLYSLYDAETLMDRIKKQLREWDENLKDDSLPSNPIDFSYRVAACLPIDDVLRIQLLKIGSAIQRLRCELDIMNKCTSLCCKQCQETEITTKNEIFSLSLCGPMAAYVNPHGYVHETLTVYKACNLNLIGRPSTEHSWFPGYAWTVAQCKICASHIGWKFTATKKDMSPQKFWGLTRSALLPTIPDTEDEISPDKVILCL
T1 sequence (Q16531 whole entry partner): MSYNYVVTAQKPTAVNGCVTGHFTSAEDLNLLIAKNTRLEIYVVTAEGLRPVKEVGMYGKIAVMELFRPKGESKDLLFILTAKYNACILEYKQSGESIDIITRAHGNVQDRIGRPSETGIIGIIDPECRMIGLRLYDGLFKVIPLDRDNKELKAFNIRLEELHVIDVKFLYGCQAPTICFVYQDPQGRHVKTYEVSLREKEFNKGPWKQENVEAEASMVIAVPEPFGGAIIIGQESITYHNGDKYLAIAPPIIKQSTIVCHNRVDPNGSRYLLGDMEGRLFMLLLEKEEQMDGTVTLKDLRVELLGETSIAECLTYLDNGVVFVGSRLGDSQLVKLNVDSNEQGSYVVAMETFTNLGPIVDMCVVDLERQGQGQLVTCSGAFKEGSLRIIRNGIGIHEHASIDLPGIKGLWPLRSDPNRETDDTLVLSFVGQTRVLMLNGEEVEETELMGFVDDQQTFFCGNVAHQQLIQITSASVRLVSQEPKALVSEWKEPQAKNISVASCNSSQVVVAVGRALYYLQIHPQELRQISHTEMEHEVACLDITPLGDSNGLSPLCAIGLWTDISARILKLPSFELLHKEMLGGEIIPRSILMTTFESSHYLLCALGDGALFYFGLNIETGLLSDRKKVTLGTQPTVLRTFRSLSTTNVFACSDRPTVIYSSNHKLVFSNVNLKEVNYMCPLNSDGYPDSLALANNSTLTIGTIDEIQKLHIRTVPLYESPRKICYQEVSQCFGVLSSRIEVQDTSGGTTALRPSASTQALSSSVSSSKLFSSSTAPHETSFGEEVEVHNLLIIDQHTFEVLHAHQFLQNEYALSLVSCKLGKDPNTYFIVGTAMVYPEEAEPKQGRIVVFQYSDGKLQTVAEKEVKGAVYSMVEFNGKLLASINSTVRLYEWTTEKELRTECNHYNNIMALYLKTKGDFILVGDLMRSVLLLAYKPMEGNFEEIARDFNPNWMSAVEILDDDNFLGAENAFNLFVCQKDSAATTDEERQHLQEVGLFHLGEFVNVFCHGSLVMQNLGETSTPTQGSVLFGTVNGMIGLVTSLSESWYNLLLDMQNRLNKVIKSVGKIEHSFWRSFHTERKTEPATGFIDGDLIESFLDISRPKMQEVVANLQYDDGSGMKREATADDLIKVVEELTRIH
T1 sequence (Q9H2S9 whole entry): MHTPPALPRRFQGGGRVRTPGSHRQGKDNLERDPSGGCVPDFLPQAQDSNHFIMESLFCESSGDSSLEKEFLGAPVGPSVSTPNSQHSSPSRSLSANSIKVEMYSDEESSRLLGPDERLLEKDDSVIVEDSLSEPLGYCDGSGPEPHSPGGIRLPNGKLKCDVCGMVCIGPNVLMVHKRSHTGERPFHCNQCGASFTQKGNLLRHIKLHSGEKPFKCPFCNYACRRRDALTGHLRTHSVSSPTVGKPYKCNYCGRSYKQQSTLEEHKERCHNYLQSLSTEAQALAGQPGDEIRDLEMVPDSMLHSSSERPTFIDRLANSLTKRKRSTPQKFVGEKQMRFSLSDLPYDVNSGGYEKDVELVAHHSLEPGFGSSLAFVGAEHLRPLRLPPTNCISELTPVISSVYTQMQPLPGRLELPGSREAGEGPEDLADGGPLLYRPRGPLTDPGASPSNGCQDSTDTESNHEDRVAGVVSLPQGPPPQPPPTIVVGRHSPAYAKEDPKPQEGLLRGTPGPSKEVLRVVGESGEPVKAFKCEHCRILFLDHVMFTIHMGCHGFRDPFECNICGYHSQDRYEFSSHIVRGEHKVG
T2 sequence (Q96SW2 whole entry partner): as the sequence (Q96SW2 whole entry partner) above
T2 sequence (Q16531 whole entry partner): as the sequence (Q16531 whole entry partner) above
T2 sequence (Q9UJQ4 whole entry): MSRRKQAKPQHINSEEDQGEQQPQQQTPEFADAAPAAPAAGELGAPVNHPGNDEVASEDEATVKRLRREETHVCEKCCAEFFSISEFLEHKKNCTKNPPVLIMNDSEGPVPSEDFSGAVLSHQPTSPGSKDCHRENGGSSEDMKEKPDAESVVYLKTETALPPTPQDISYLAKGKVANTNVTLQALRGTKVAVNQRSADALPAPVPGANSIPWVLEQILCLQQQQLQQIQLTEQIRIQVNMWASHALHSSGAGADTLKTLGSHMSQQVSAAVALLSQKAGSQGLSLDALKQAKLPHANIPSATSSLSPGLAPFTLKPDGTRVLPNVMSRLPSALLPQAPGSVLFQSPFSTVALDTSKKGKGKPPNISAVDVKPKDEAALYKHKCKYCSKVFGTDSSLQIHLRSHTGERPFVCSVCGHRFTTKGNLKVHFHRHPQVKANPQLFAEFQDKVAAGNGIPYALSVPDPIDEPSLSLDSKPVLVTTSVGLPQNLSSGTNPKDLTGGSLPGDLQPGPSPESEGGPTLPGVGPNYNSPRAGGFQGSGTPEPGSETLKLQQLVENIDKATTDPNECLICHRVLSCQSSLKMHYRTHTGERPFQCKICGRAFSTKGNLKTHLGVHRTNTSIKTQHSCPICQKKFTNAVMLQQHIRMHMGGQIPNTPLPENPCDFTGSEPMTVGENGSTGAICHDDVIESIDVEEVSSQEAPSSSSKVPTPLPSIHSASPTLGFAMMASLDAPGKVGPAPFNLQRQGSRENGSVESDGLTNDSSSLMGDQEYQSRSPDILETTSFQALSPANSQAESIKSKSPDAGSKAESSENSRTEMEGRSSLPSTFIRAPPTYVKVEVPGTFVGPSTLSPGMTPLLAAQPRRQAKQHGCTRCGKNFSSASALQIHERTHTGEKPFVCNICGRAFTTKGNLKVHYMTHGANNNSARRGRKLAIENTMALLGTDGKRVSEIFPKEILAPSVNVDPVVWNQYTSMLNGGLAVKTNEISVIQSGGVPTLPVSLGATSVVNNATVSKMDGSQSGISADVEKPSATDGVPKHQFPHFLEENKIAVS
T3 sequence (Q96SW2 whole entry partner): as the sequence (Q96SW2 whole entry partner) above
T3 sequence (Q16531 whole entry partner): as the sequence (Q16531 whole entry partner) above
T3 sequence (Q05516 whole entry): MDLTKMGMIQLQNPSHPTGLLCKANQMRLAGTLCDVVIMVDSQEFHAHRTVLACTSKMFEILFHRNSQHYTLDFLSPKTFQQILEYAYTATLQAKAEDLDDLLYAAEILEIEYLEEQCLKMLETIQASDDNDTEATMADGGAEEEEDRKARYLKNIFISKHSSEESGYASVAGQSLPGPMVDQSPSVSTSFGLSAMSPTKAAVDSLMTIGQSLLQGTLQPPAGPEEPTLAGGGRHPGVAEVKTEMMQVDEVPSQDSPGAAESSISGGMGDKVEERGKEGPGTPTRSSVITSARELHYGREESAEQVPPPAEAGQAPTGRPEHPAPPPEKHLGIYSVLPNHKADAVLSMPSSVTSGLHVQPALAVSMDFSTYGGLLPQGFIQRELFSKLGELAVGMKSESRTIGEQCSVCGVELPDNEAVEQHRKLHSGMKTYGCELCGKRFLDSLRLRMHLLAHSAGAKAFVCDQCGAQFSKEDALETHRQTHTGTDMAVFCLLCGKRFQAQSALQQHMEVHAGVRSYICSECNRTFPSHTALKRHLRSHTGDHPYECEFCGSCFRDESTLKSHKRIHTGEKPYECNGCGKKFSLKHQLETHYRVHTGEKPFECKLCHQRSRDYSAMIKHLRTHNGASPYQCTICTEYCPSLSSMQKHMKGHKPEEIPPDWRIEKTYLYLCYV

Q: With `CN1CCN(Cc2cccc(C(=O)NC3CCC(=O)NC3=O)c2F)C(=O)C1` (stereo not drawn) [MGD-C9, N-(2,6-dioxopiperidin-3-yl)-2-fluoro-3-((4-methyl-2-oxopiperazin-1-yl)methyl)benzamide] as the compound, how does the “absolute [log2(fold change)] of IKZF4” value (IKZF4) read?
A: The value was “less than 1”.

Q: And the “SALL4 level (proteomics)” value (SALL4)?
A: The value was “remained unaffected”.

Q: And the “PLZF level (proteomics)” value (PLZF)?
A: Its value is “remained unaffected”.
